Legend:
[1] = target: T1, CAMK1D (Homo sapiens, UniProt Q8IU85); experiment: KinomeScan; format: binding; details: read-out: % control
T1 construct: purchased DiscoveRx KINOMEscan

[2] = target: T2, CDC2L2 (Homo sapiens, UniProt Q9UQ88); experiment: KinomeScan; format: binding; details: read-out: % control
T2 construct: purchased DiscoveRx KINOMEscan

[3] = target: T3, CHEK2 (Homo sapiens, UniProt O96017); experiment: KinomeScan; format: binding; details: read-out: % control
T3 construct: purchased DiscoveRx KINOMEscan

[4] = target: T4, CTK (Homo sapiens, UniProt P42679); experiment: KinomeScan; format: binding; details: read-out: % control
T4 construct: purchased DiscoveRx KINOMEscan

[5] = target: T5, EGFR (Homo sapiens, UniProt P00533); experiment: KinomeScan; format: binding; details: read-out: % control
T5 construct: purchased DiscoveRx KINOMEscan

[6] = target: T6, FGFR3(G697C) (Homo sapiens, UniProt P22607, G697C); experiment: KinomeScan; format: binding; details: read-out: % control
T6 construct: purchased DiscoveRx KINOMEscan
T6 sequence (P22607 23-806 G697C): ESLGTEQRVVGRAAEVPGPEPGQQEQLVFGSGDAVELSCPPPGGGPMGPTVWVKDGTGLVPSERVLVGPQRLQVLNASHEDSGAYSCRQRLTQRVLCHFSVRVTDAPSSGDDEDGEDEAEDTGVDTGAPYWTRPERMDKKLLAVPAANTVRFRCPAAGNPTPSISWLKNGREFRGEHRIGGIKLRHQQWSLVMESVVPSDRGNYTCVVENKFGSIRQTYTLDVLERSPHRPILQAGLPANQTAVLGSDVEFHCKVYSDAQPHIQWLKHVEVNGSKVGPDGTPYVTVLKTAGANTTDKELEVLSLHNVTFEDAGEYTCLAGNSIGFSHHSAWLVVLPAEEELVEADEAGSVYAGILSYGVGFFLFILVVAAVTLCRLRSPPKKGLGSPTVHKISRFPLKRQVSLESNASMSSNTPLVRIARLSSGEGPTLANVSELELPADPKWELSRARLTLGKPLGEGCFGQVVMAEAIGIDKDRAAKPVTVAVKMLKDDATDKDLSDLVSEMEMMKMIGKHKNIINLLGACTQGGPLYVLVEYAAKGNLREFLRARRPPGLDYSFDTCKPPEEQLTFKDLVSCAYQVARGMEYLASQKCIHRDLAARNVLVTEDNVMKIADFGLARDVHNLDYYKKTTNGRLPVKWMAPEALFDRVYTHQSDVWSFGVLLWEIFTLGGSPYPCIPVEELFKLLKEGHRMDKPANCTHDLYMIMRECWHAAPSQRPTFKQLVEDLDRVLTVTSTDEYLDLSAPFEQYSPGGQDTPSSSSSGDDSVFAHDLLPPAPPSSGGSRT

[7] = target: T7, GAK (Homo sapiens, UniProt O14976); experiment: KinomeScan; format: binding; details: read-out: % control
T7 construct: purchased DiscoveRx KINOMEscan
T7 sequence (O14976 whole entry): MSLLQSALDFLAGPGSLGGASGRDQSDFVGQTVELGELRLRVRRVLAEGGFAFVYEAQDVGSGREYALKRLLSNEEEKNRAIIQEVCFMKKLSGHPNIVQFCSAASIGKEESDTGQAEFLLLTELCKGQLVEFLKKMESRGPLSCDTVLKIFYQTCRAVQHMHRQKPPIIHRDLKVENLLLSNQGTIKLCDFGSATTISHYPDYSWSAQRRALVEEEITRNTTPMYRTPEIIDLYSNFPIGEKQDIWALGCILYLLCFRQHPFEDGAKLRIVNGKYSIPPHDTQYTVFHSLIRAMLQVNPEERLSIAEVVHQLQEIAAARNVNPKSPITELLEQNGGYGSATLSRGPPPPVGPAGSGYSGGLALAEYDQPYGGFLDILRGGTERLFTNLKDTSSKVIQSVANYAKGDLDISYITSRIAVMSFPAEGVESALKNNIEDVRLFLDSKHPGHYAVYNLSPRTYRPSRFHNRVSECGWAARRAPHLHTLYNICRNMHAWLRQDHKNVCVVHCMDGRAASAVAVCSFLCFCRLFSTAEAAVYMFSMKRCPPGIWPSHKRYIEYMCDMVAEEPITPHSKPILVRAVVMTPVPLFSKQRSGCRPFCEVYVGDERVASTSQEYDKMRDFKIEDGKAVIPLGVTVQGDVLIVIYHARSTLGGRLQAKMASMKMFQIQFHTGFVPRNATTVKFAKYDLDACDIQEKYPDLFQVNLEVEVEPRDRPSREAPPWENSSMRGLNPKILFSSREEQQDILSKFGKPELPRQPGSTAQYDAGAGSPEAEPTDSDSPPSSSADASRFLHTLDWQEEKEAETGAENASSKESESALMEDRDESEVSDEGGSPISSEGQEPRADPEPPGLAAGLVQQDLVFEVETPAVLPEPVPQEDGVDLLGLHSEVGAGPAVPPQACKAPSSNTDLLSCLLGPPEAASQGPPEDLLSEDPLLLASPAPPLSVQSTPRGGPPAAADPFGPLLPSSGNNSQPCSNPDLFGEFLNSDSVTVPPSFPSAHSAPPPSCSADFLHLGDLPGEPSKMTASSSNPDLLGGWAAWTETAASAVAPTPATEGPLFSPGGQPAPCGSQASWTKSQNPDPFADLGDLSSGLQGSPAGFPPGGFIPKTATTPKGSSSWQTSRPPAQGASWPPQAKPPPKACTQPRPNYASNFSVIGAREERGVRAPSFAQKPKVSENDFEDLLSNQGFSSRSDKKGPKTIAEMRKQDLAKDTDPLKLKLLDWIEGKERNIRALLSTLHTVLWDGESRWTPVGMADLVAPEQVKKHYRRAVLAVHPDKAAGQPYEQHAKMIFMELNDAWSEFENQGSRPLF

[8] = target: T8, HPK1 (Homo sapiens, UniProt Q92918); experiment: KinomeScan; format: binding; details: read-out: % control
T8 construct: purchased DiscoveRx KINOMEscan

[9] = target: T9, INSR (Homo sapiens, UniProt P06213); experiment: KinomeScan; format: binding; details: read-out: % control
T9 construct: purchased DiscoveRx KINOMEscan

[10] = target: T10, JAK2(JH1domain-catalytic) (Homo sapiens, UniProt O60674); experiment: KinomeScan; format: binding; details: read-out: % control
T10 construct: JAK2(JH1domain-catalytic); purchased DiscoveRx KINOMEscan

[11] = target: T11, LOK (Homo sapiens, UniProt O94804); experiment: KinomeScan; format: binding; details: read-out: % control
T11 construct: purchased DiscoveRx KINOMEscan

[12] = target: T12, MAK (Homo sapiens, UniProt P20794); experiment: KinomeScan; format: binding; details: read-out: % control
T12 construct: purchased DiscoveRx KINOMEscan

[13] = target: T13, MKK7 (Homo sapiens, UniProt O14733); experiment: KinomeScan; format: binding; details: read-out: % control
T13 construct: purchased DiscoveRx KINOMEscan

[14] = target: T14, NEK1 (Homo sapiens, UniProt Q96PY6); experiment: KinomeScan; format: binding; details: read-out: % control
T14 construct: purchased DiscoveRx KINOMEscan

[15] = target: T15, NEK2 (Homo sapiens, UniProt P51955); experiment: KinomeScan; format: binding; details: read-out: % control
T15 construct: purchased DiscoveRx KINOMEscan
T15 sequence (P51955 whole entry): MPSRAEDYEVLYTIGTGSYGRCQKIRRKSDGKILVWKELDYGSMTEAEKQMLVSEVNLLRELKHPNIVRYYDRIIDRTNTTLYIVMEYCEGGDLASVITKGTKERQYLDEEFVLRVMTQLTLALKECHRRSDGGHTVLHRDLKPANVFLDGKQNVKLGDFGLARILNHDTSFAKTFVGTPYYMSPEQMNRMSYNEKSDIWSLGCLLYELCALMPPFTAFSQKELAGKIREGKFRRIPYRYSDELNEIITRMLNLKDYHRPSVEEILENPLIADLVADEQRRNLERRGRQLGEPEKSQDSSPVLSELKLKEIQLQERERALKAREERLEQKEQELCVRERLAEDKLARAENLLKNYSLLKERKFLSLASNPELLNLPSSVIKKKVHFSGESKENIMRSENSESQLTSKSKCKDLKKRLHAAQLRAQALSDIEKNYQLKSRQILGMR

[16] = target: T16, NEK7 (Homo sapiens, UniProt Q8TDX7); experiment: KinomeScan; format: binding; details: read-out: % control
T16 construct: purchased DiscoveRx KINOMEscan

[17] = target: T17, OSR1 (Homo sapiens, UniProt O95747); experiment: KinomeScan; format: binding; details: read-out: % control
T17 construct: purchased DiscoveRx KINOMEscan

[18] = target: T18, PAK7 (Homo sapiens, UniProt Q9P286); experiment: KinomeScan; format: binding; details: read-out: % control
T18 construct: purchased DiscoveRx KINOMEscan

[19] = target: T19, PIK3CD (Homo sapiens, UniProt O00329); experiment: KinomeScan; format: binding; details: read-out: % control
T19 construct: purchased DiscoveRx KINOMEscan

[20] = target: T20, PRKCI (Homo sapiens, UniProt P41743); experiment: KinomeScan; format: binding; details: read-out: % control
T20 construct: purchased DiscoveRx KINOMEscan

[21] = target: T21, PRKG2 (Homo sapiens, UniProt Q13237); experiment: KinomeScan; format: binding; details: read-out: % control
T21 construct: purchased DiscoveRx KINOMEscan

[22] = target: T22, RIPK2 (Homo sapiens, UniProt O43353); experiment: KinomeScan; format: binding; details: read-out: % control
T22 construct: purchased DiscoveRx KINOMEscan

[23] = target: T23, RIPK5 (Homo sapiens, UniProt Q6XUX3); experiment: KinomeScan; format: binding; details: read-out: % control
T23 construct: purchased DiscoveRx KINOMEscan

[24] = target: T24, ROCK2 (Homo sapiens, UniProt O75116); experiment: KinomeScan; format: binding; details: read-out: % control
T24 construct: purchased DiscoveRx KINOMEscan

[25] = target: T25, SLK (Homo sapiens, UniProt Q9H2G2); experiment: KinomeScan; format: binding; details: read-out: % control
T25 construct: purchased DiscoveRx KINOMEscan
T25 sequence (Q9H2G2 whole entry): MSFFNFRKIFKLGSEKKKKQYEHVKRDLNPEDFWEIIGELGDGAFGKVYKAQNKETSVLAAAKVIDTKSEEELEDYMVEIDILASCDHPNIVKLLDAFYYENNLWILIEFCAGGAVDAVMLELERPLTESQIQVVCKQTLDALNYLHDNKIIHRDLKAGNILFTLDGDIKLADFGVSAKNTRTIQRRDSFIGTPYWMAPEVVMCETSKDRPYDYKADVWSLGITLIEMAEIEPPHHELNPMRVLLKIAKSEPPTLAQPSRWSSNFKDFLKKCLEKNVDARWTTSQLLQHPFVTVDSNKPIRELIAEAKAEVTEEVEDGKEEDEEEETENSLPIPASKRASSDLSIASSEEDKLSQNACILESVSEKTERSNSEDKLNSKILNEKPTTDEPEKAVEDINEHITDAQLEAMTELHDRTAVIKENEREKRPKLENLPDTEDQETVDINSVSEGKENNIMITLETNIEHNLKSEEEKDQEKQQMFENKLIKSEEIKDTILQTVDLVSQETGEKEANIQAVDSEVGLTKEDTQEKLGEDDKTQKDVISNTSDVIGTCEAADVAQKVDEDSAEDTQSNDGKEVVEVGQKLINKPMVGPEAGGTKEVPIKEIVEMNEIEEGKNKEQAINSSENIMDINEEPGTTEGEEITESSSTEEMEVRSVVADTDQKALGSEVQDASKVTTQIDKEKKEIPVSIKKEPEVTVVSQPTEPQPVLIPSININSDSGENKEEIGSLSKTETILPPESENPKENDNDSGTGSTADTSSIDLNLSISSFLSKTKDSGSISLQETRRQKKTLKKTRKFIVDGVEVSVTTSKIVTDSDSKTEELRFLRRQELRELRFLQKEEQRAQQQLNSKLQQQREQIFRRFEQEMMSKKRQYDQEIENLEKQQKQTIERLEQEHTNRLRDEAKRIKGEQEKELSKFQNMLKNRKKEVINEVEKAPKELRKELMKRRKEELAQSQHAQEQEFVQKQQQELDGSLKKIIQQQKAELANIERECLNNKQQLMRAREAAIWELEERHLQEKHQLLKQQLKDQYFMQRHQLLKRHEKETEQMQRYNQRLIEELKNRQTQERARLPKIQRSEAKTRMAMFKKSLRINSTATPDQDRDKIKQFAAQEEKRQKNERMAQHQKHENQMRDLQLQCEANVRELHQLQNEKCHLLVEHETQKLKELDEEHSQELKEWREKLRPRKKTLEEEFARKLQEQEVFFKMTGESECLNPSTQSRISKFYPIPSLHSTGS

[26] = target: T26, SNRK (Homo sapiens, UniProt Q9NRH2); experiment: KinomeScan; format: binding; details: read-out: % control
T26 construct: purchased DiscoveRx KINOMEscan

[27] = target: T27, SRMS (Homo sapiens, UniProt Q9H3Y6); experiment: KinomeScan; format: binding; details: read-out: % control
T27 construct: purchased DiscoveRx KINOMEscan

[28] = target: T28, SRPK3 (Homo sapiens, UniProt Q9UPE1); experiment: KinomeScan; format: binding; details: read-out: % control
T28 construct: purchased DiscoveRx KINOMEscan
T28 sequence (Q9UPE1 whole entry): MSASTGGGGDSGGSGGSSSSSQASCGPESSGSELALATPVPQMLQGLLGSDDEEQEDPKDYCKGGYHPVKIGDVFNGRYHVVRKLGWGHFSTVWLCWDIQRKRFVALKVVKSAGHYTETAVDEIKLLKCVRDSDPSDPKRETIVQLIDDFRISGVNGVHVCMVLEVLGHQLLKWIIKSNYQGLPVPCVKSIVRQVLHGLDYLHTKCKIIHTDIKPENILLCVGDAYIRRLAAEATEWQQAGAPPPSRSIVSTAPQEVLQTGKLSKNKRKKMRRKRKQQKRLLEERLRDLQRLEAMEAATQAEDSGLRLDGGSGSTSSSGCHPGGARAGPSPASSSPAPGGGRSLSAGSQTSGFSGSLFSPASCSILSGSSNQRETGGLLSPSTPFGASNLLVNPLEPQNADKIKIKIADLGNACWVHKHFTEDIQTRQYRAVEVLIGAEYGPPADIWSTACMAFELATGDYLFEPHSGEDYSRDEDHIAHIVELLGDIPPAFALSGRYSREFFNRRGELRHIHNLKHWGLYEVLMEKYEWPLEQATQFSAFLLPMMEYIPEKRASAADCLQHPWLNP

[29] = target: T29, STK16 (Homo sapiens, UniProt O75716); experiment: KinomeScan; format: binding; details: read-out: % control
T29 construct: purchased DiscoveRx KINOMEscan

[30] = target: T30, TAK1 (Homo sapiens, UniProt O43318); experiment: KinomeScan; format: binding; details: read-out: % control
T30 construct: purchased DiscoveRx KINOMEscan
T30 sequence (O43318 whole entry): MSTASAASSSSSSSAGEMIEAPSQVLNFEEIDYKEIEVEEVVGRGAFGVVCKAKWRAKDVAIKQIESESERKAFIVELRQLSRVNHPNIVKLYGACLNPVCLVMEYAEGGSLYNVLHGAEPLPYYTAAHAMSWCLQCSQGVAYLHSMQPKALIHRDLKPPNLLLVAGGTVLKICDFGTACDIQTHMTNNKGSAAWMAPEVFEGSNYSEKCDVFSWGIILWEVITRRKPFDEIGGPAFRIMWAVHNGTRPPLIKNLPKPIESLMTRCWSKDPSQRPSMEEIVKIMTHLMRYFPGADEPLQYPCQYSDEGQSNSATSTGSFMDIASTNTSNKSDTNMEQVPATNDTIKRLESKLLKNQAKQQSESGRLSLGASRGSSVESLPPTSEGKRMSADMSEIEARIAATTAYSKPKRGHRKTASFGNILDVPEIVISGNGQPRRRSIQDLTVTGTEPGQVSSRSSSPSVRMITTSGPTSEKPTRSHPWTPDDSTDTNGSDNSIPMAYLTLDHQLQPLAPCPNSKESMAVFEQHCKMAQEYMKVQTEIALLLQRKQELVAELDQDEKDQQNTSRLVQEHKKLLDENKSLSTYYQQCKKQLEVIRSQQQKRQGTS

[31] = target: T31, TBK1 (Homo sapiens, UniProt Q9UHD2); experiment: KinomeScan; format: binding; details: read-out: % control
T31 construct: purchased DiscoveRx KINOMEscan

[32] = target: T32, TIE1 (Homo sapiens, UniProt P35590); experiment: KinomeScan; format: binding; details: read-out: % control
T32 construct: purchased DiscoveRx KINOMEscan

[33] = target: T33, TRKB (Homo sapiens, UniProt Q16620); experiment: KinomeScan; format: binding; details: read-out: % control
T33 construct: purchased DiscoveRx KINOMEscan

[34] = target: T34, TSSK3 (Homo sapiens, UniProt Q96PN8); experiment: KinomeScan; format: binding; details: read-out: % control
T34 construct: purchased DiscoveRx KINOMEscan

[35] = target: T35, VEGFR2 (Homo sapiens, UniProt P35968); experiment: KinomeScan; format: binding; details: read-out: % control
T35 construct: purchased DiscoveRx KINOMEscan

[36] = tested on: H1975 (EGFRL858R/T790M); experiment: Anti-proliferation, NSCLC cell lines (CellTiter-Glo); format: cell-based, human
Protocol: The human cancer cell lines H1975, HCC827, H2122, CHO, CHL and H1355 were purchased from the American Type Culture Collection (ATCC) (Manassas, VA, USA). PC9 cell line was purchased from the Sigma-Aldrich (St. Louis, MO, USA). A549, H3255 were purchased from Cobioer Biosciences CO., LTD (Nanjing, China). […] A549 and H1355 were cultured in F-12K Nutrient Mixture (kaighn's Modification) (Gibco, USA) with 10% FBS and supplemented with 2% L-glutamine and 1% pen/strep. H3255 was cultured in BEGM media (LONZA, USA) with 10% FBS and supplemented with 2% L-glutamine and 1% pen/strep.

[37] = tested on: 468 kinases/mutants; experiment: KinomeScan selectivity profile (panel); format: binding; details: 1μM
From the text: In order to better understand CHMFL-EGFR-26's selectivity, we then tested it in DiscoveRx's KinomeScan™ assay. […] Given the fact that KinomeScan™ is a binding assay and sometimes cannot truly reflect the compound inhibitory activity, we then used Invitrogen SelectScreen® assay to test these potential off-targets (Supplementary Table 2). […] This was not surprising because EGFR, JAK3, HER2, HER4 and TEC family kinases (BTK, BLK and BMX) all share a similar cysteine residue at the identical position analogous to Cys 797 in EGFR in the hinge binding area.

`C=CC(=O)N1CCC[C@@H](n2nc(-c3ccc(OCc4cccc(C)n4)c(Cl)c3)c3c(N)ncnc32)C1` [CHMFL-EGFR-26] gave a remaining binding at 1 µM [1] of 91%, a remaining binding at 1 µM [2] of 97% and a remaining binding at 1 µM [3] of 88%. For the same compound, the remaining binding at 1 µM [4] was 95%, the remaining binding at 1 µM [5] was 0.8% and the remaining binding at 1 µM [6] was 100%. The remaining binding at 1 µM [7] was 72%, the remaining binding at 1 µM [8] was 100% and the remaining binding at 1 µM [9] was 100%. For the same compound, the remaining binding at 1 µM [10] was 95%, the remaining binding at 1 µM [11] was 0.2% and the remaining binding at 1 µM [12] was 100%. For the same compound, the remaining binding at 1 µM [13] was 2.5%, the remaining binding at 1 µM [14] was 92% and the remaining binding at 1 µM [15] was 18%. The remaining binding at 1 µM [16] was 90%, the remaining binding at 1 µM [17] was 95% and the remaining binding at 1 µM [18] was 67%. For the same compound, the remaining binding at 1 µM [19] was 100%, the remaining binding at 1 µM [20] was 100% and the remaining binding at 1 µM [21] was 100%. It also gave a remaining binding at 1 µM [22] of 13%, a remaining binding at 1 µM [23] of 13% and a remaining binding at 1 µM [24] of 100%. The remaining binding at 1 µM [25] was 8.8%, the remaining binding at 1 µM [26] was 100% and the remaining binding at 1 µM [27] was 11%. It also gave a remaining binding at 1 µM [28] of 90%, a remaining binding at 1 µM [29] of 100% and a remaining binding at 1 µM [30] of 100%. The remaining binding at 1 µM [31] was 100%, the remaining binding at 1 µM [32] was 69% and the remaining binding at 1 µM [33] was 100%. For the same compound, the remaining binding at 1 µM [34] was 100%, the remaining binding at 1 µM [35] was 100% and the “fold more potent than AZD9291” value ([36]; H1975 GI50) was “about 170 fold”. For the same compound, the GI50 ([36]; Homo sapiens, NCI-H1975, H1975 (EGFRL858R/T790M), 72 hours, triplet testing) was under 0.3 nM and the “S score (1)” value [37] was 0.02.

From publication PMC5392334, “Discovery and characterization of a novel irreversible EGFR mutants selective and potent kinase inhibitor CHMFL-EGFR-26 with a distinct binding mode” (Oncotarget, 2017)
